Measurements as given in US20260027221A1, “Targeted Pyrrolobenzodiazapine Conjugates” (BeOne Medicines I GmbH, priority 2023, published 2026).

Columns and labels:
A375 cells = test: Compounds cellular killing in A375 cancer line (Cell Titer-Glo, 6 days); assay type: cell-based, human; details: Homo sapiens, A-375, 144 h, 6 days incubation, cell viability by Cell Titer-Glo
Protocol: (§1) A375 (ATCC, CRL-1619). […] The base medium for A375 is DMEM, high glucose, GlutaMAX™ Supplement (Gibco, 10566024). To make the complete growth medium, fetal bovine serum was added to the base mediumat a final concentration of 10% (Gibco, 10099-141C). The cell line was grown in a humidified 5% CO2 atmosphere at 37° C., and was regularly tested for the presence of mycoplasma with MycoAlert™ PLUS Mycoplasma Detection Kit (Lonza, LT07-710).
(§2) Payload direct killing by compounds 1-1 to 1-22 was assessed in A375 and Calu-6 cancer cell lines. Cells were seeded at 1E3/well (A375) 2E3/well (Calu-6) into 96-well plates (Greiner: 655090), 100 μL/well, and incubated at 37° C., 5% CO2, overnight. Fresh growth medium was added containing varying concentrations of compounds, 50 μL/well, and incubated at 37° C., 5% CO2, for 6 days. The cell viability detected by Cell Titer-Glo (Promega, G7573), 70 μL/well. The plates were allowed to incubate at room temperature for 10 minutes to stabilize the luminescent signal. The plates were analyzed with a microplate reader.

Calu-6 cells = test: Compounds cellular killing in Calu-6 cancer line (Cell Titer-Glo, 6 days); assay type: cell-based, human; details: Homo sapiens, Calu-6, 144 h, 6 days incubation, cell viability by Cell Titer-Glo
Protocol: as §1, with “Calu-6” for “A375”, “HTB-56).” for “CRL-1619).”, “Eagle's Minimum Essential Medium (ATCC, 30-2003).” for “DMEM, high glucose, GlutaMAX™ Supplement (Gibco, 10566024).”
as §2

SMILES	EC50 (A375 cells) [nM]	Emax (A375 cells) [%]	EC50 (Calu-6 cells) [nM]	Emax (Calu-6 cells) [%]
COc1cc2c(cc1OCc1cc(O)cc(COc3cc4c(cc3OC)C(=O)N3CC5(CC5)C[C@H]3C=N4)c1)N=C[C@@H]1CC3(CC3)CN1C2=O [Compound 1-18, (11aS,11a″S)-8,8″-(((5-hydroxy-1,3-phenylene)bis(methylene))bis(oxy))bis(7-methoxy-1,11a-dihydro-3H,5H-spiro[benzo[e]pyrrolo[1,2-a][1,4]diazepine-2,1′-cyclopropan]-5-one)]	0.398	80.3	0.126	89.8
COc1cc2c(cc1OCCCCCOc1cc3c(cc1OC)C(=O)N1CC4(CC4)C[C@H]1C=N3)N=C[C@@H]1CCCCN1C2=O [Compound 1-16, (S)-7-methoxy-8-((5-(((S)-2-methoxy-12-oxo-6a,7,8,9,10,12-hexahydrobenzo[e]pyrido[1,2-a][1,4]diazepin-3-yl)oxy)pentyl)oxy)-1,11a-dihydro-3H,5H-spiro[benzo[e]pyrrolo[1,2-a][1,4]diazepine-2,1′-cyclopropan]-5-one]	0.146	89.6	0.038	92.3
COc1cc2c(cc1OC/C=C/CCOc1cc3c(cc1OC)C(=O)N1CC4(CC4)C[C@H]1C=N3)N=C[C@@H]1CC3(CC3)CN1C2=O [Compound 1-19, (11aS,11a″S)-8,8″-(((E)-pent-2-ene-1,5-diyl)bis(oxy))bis(7-methoxy-1,11a-dihydro-3H,5H-spiro[benzo[e]pyrrolo[1,2-a][1,4]diazepine-2,1′-cyclopropan]-5-one)]	0.165	88.7	0.052	90.6
COc1cc2c(cc1OCCCOc1cc3c(cc1OC)C(=O)N1CC4(CC4)C[C@H]1C=N3)N=C[C@@H]1Cc3ccccc3CN1C2=O [Compound 1-14, (S)-2-methoxy-3-(3-(((S)-7-methoxy-5-oxo-5,11a-dihydro-1H,3H-spiro[benzo[e]pyrrolo[1,2-a][1,4]diazepine-2,1′-cyclopropan]-8-yl)oxy)propoxy)-7,12-dihydrobenzo[5,6][1,4]diazepino[1,2-b]isoquinolin-14(6aH)-one]	0.033	98.9	0.01	99.2
COc1cc2c(cc1OCc1cccc(COc3cc4c(cc3OC)C(=O)N3CC5(CC5)C[C@H]3C=N4)n1)N=C[C@@H]1CC3(CC3)CN1C2=O [Compound 1-17, (11aS,11a″S)-8,8″-((pyridine-2,6-diylbis(methylene))bis(oxy))bis(7-methoxy-1,11a-dihydro-3H,5H-spiro[benzo[e]pyrrolo[1,2-a][1,4]diazepine-2,1′-cyclopropan]-5-one)]	0.017	99.9	0.005	99.7
COc1cc2c(cc1OCCCCCOc1cc3c(cc1OC)C(=O)N1CC4(CC4)C[C@H]1C=N3)N=C[C@@H]1Cc3ccccc3CN1C2=O [Compound 1-1, (S)-2-methoxy-3-((5-(((S)-7-methoxy-5-oxo-5,11a-dihydro-1H,3H-spiro[benzo[e]pyrrolo[1,2-a][1,4]diazepine-2,1′-cyclopropan]-8-yl)oxy)pentyl)oxy)-7,12-dihydrobenzo[5,6][1,4]diazepino[1,2-b]isoquinolin-14(6aH)-one]	0.005	99.8	0.002	99.5
COc1cc2c(cc1OCCCCCOc1cc3c(cc1OC)C(=O)N1CC4(CC4)C[C@H]1CN3)N=C[C@@H]1Cc3ccccc3CN1C2=O [Compound 1-3, (S)-2-methoxy-3-((5-(((S)-7-methoxy-5-oxo-5,10,11,11a-tetrahydro-1H,3H-spiro[benzo[e]pyrrolo[1,2-a][1,4]diazepine-2,1′-cyclopropan]-8-yl)oxy)pentyl)oxy)-7,12-dihydrobenzo[5,6][1,4]diazepino[1,2-b]isoquinolin-14(6aH)-one]	0.002	99.9	0.001	99.3
COc1cc2c(cc1OCc1cccc(COc3cc4c(cc3OC)C(=O)N3CC5(CC5)C[C@H]3CN4)c1)N=C[C@@H]1CC3(CC3)CN1C2=O [Compound 1-9, (S)-7-methoxy-8-((3-((((S)-7-methoxy-5-oxo-5,11a-dihydro-1H,3H-spiro[benzo[e]pyrrolo[1,2-a][1,4]diazepine-2,1′-cyclopropan]-8-yl)oxy)methyl)benzyl)oxy)-1,10,11,11a-tetrahydro-3H,5H-spiro[benzo[e]pyrrolo[1,2-a][1,4]diazepine-2,1′-cyclopropan]-5-one]	0.01	99.9	0.002	99.7
COc1cc2c(cc1OCCOCCOc1cc3c(cc1OC)C(=O)N1CC4(CC4)C[C@H]1C=N3)N=C[C@@H]1Cc3ccccc3CN1C2=O [Compound 1-5, (S)-2-methoxy-3-(2-(2-(((S)-7-methoxy-5-oxo-5,11a-dihydro-1H,3H-spiro[benzo[e]pyrrolo[1,2-a][1,4]diazepine-2,1′-cyclopropan]-8-yl)oxy)ethoxy)ethoxy)-7,12-dihydrobenzo[5,6][1,4]diazepino[1,2-b]isoquinolin-14(6aH)-one]	> 1	39.2	0.165	90.8
COc1cc2c(cc1OCC13CC(COc4cc5c(cc4OC)C(=O)N4CC6(CC6)C[C@H]4C=N5)(C1)C3)N=C[C@@H]1Cc3ccccc3CN1C2=O [Compound 1-11, (S)-2-methoxy-3-((3-((((S)-7-methoxy-5-oxo-5,11a-dihydro-1H,3H-spiro[benzo[e]pyrrolo[1,2-a][1,4]diazepine-2,1′-cyclopropan]-8-yl)oxy)methyl)bicyclo[1.1.1]pentan-1-yl)methoxy)-7,12-dihydrobenzo[5,6][1,4]diazepino[1,2-b]isoquinolin-14(6aH)-one]	6.11	99.9	0.34	99.4
COc1ccc(C2=CN3C(=O)c4cc(OC)c(OCCCCCOc5cc6c(cc5OC)C(=O)N5CCC7(CC7)C[C@H]5C=N6)cc4NC[C@@H]3C2)cc1 [Compound 1-6, (S)-2-methoxy-3-((5-(((S)-7-methoxy-2-(4-methoxyphenyl)-5-oxo-5,10,11,11a-tetrahydro-1H-benzo[e]pyrrolo[1,2-a][1,4]diazepin-8-yl)oxy)pentyl)oxy)-6a,7,9,10-tetrahydro-12H-spiro[benzo[e]pyrido[1,2-a][1,4]diazepine-8,1′-cyclopropan]-12-one]	0.067	97.5	0.033	97.6
COc1cc2c(cc1OCCCCCOc1cc3c(cc1OC)C(=O)N1Cc4ccccc4C[C@H]1CN3)N=C[C@@H]1CC3(CC3)CN1C2=O [Compound 1-2, (S)-2-methoxy-3-((5-(((S)-7-methoxy-5-oxo-5,11a-dihydro-1H,3H-spiro[benzo[e]pyrrolo[1,2-a][1,4]diazepine-2,1′-cyclopropan]-8-yl)oxy)pentyl)oxy)-6,6a,7,12-tetrahydrobenzo[5,6][1,4]diazepino[1,2-b]isoquinolin-14(5H)-one]	0.118	98	0.052	97.6
COc1cc2c(cc1OCC13CC(COc4cc5c(cc4OC)C(=O)N4Cc6ccccc6C[C@H]4CN5)(C1)C3)N=C[C@@H]1CC3(CC3)CN1C2=O [Compound 1-12, (S)-2-methoxy-3-((3-((((S)-7-methoxy-5-oxo-5,11a-dihydro-1H,3H-spiro[benzo[e]pyrrolo[1,2-a][1,4]diazepine-2,1′-cyclopropan]-8-yl)oxy)methyl)bicyclo[1.1.1]pentan-1-yl)methoxy)-6,6a,7,12-tetrahydrobenzo[5,6][1,4]diazepino[1,2-b]isoquinolin-14(5H)-one]	297	97.5	108	99.4
COc1cc2c(cc1OCc1cccc(COc3cc4c(cc3OC)C(=O)N3CC5(CC5)C[C@H]3CN4)c1)NC[C@@H]1CC3(CC3)CN1C2=O [Compound 1-10]	> 1	42	0.358	84.7
COc1cc2c(cc1OCCCCCOc1cc3c(cc1OC)C(=O)N1CC4(CC4)C[C@H]1CN3)NC[C@@H]1Cc3ccccc3CN1C2=O [Compound 1-4, (S)-2-methoxy-3-((5-(((S)-7-methoxy-5-oxo-5,10,11,11a-tetrahydro-1H,3H-spiro[benzo[e]pyrrolo[1,2-a][1,4]diazepine-2,1′-cyclopropan]-8-yl)oxy)pentyl)oxy)-6,6a,7,12-tetrahydrobenzo[5,6][1,4]diazepino[1,2-b]isoquinolin-14(5H)-one]	0.14	90.6	0.077	94.9
